Reference: ChEMBL document CHEMBL2046305, “Discovery of selective menaquinone biosynthesis inhibitors against Mycobacterium tuberculosis” (J Med Chem, 2012)
Values after ≈ are worked out from the molar mass of the structure shown.

Tests used:
[1] = system: Mycobacterium tuberculosis; assay: Antibacterial activity against isoniazid-resistant Mycobacterium tuberculosis H37Rv by microplate alamar blue assay; assay type: functional
[2] = system: Mycobacterium tuberculosis; assay: Antibacterial activity against rifampicin-resistant Mycobacterium tuberculosis H37Rv by microplate alamar blue assay; assay type: functional

Compound	MIC [1] [µg/mL]	MIC [2] [µg/mL]
CCCCCC[C@H](CN1CCC(COc2cccc(C(=O)c3ccc(Cl)cc3)c2)CC1)OC(N)=O	2.91 (≈ 5.81 µM)	2.91 (≈ 5.81 µM)
CCCCCC[C@H](CN1CCC(COc2cccc(/C(=N\OC)c3ccc(Cl)cc3)c2)CC1)OC(N)=O	1.52 (≈ 2.87 µM)	1.51 (≈ 2.85 µM)
NNC(=O)c1ccncc1 [ISONIAZID]	> 8	0.05 (≈ 0.365 µM)
CO[C@H]1/C=C/O[C@@]2(C)Oc3c(C)c(O)c4c(O)c(c(/C=N/N5CCN(C)CC5)c(O)c4c3C2=O)NC(=O)/C(C)=C\C=C\[C@H](C)[C@H](O)[C@@H](C)[C@@H](O)[C@@H](C)[C@H](OC(C)=O)[C@@H]1C [RIFAMPIN]	0.03 (≈ 0.0365 µM)	> 4
